For 16 molecules, IC50 results are on record in patent US8222263B2, “Inhibitors of hedgehog pathway” (Exelixis Patent Company LLC, priority 2007, dated 2012).

The assay concerns Gli-luciferase (firefly) reporter in SHh Light II cell line (NIH-3T3), Hedgehog pathway. The assay is described as follows: Light II Assay (SHh-Smo cell-based Gli-luciferase reporter assay). Particulars: rSHh stimulated cells, 24 hours, % inhibition of luciferase signal. On the procedure:
The SHh-Smo assay is a cell-based reporter assay in the SHh Light II cell line (NIH-3T3), available through the American Tissue Culture Center (ATCC). […] In addition, this cell line contains a constitutively expressed renilla luciferase reporter (via CMV promoter) which can be used as a readout to detect any non-specific compound effects, including cytotoxicity.
Test compounds were serially diluted in DMSO and 1.5 μL aliquots were transferred to 384-well non-binding plates. Compounds were diluted with 85 μL of assay media (DMEM+0.5% FBS, 5 mM Hepes, 1% NEAA, 1% PenStrep, 0.8% Geneticin). Cell plates were prepared by adding 50 μL of assay media (240 cells/μL) to white TC coated 384-well plates (final cell concentration is 12,000 cells/well). Cell plates were incubated overnight at 37° C.
Media was removed from the cell plates and 30 μL of compound in assay media+rSHh (1.5 μg/well) was added to the cell plates. Plates were incubated at 37° C. for 24 hours. Following overnight incubation, media was aspirated from the cell plates and 20 μL of luciferase media (Bright-glo, Promega) was added to the cell. Cells were incubated for 5 minutes and measured on an Envision™ plate reader (Perkn Elmer) using the luciferase detection protocol. IC50 values were calculated as a percentage inhibition of luciferase signal from rSHh stimulated cells compared to unstimulated cells.
On the technique in general: Reporter assays use an easily measured gene product as a stand-in for the process of interest.
For `Cc1ccc(CN2CCOCC2)cc1NC(=O)c1ccc(Nc2nc(-c3ccccc3)c3ccccc3n2)c(F)c1` [3-fluoro-N-[2-methyl-5-(morpholin-4-ylmethyl)phenyl]-4-[(4-phenylquinazolin-2-yl)amino]benzamide], the IC50 amounted to 6.2 nM.
The figure for `Cc1cccc(C)c1NC(=O)c1ccc(Nc2nc(C3CC3)c3ccccc3n2)cc1` [4-[(4-cyclopropylquinazolin-2-yl)amino]-N-(2,6-dimethylphenyl)benzamide] is 2.8 nM.
Consider `O=C(c1ccccc1)N1CCC(Nc2nc(-c3ccccc3)c3ccccc3n2)CC1` [4-phenyl-N-[1-(phenylcarbonyl)piperidin-4-yl]quinazolin-2-amine], for which the IC50 was 68.4 nM.
Regarding `Cc1ccc(CN2CCOCC2)cc1NC(=O)c1ccc(Nc2nc(C(C)C)c3ccccc3n2)cc1` [4-{[4-(1-methylethyl)quinazolin-2-yl]amino}-N-[2-methyl-5-(morpholin-4-ylmethyl)phenyl]benzamide], the half-maximal inhibitory concentration (IC50) was 17.8 nM.
The molecule `Cc1cccc(C)c1NC(=O)c1cc(Nc2nc(-c3ccccc3)c3ccccc3n2)c(Cl)s1` [5-chloro-N-(2,6-dimethylphenyl)-4-[(4-phenylquinazolin-2-yl)amino]thiophene-2-carboxamide] showed an IC50 of 166 nM. This IC50 is about 9.3-fold higher than that of the molecule before.
On to `Cc1cccc(C)c1NC(=O)c1ccc(Nc2nc3c(c(-c4ccccc4)n2)CCC3)cc1` [N-(2,6-dimethylphenyl)-4-[(4-phenyl-6,7-dihydro-5H-cyclopenta[d]pyrimidin-2-yl)amino]benzamide], for which the half-maximal inhibitory concentration (IC50) came to 25.8 nM. Compared with the last molecule, the IC50 is about 6.4-fold lower.
Molecule `Cc1cccc(C)c1NC(=O)c1ccc(Nc2nc(-c3ccccc3)c3cccnc3n2)cc1` [N-(2,6-dimethylphenyl)-4-[(4-phenylpyrido[2,3-d]pyrimidin-2-yl)amino]benzamide] gave an IC50 of 3.6 nM.
The figure for `Cc1cccc(C)c1NC(=O)c1ccc(Nc2nc3c(c(-c4ccccc4)n2)CN(Cc2ccccc2)CC3)cc1` [N-(2,6-dimethylphenyl)-4-{[4-phenyl-6-(phenylmethyl)-5,6,7,8-tetrahydropyrido[4,3-d]pyrimidin-2-yl]amino}benzamide] is 156 nM; for `CN1CCc2ccc(NC(=O)c3ccc(Nc4nc(-c5ccccc5)c5ccccc5n4)cc3)cc2C1` [N-(2-methyl-1,2,3,4-tetrahydroisoquinolin-7-yl)-4-[(4-phenylquinazolin-2-yl)amino]benzamide] it is 5.8 nM; for `Cc1ccc(CN(C)Cc2ccccc2)cc1NC(=O)c1ccc(Nc2nc(C)c3ccccc3n2)cc1` [N-(2-methyl-5-{[methyl(phenylmethyl)amino]methyl}phenyl)-4-[(4-methylquinazolin-2-yl)amino]benzamide] it is 3.4 nM.
In turn, `Cc1ccc(C(=O)NCCN(C)C)cc1NC(=O)c1ccc(Nc2nc(-c3ccccc3)c3ccccc3n2)cc1` [N-[2-(dimethylamino)ethyl]-4-methyl-3-[({4-[(4-phenylquinazolin-2-yl)amino]phenyl}carbonyl)amino]benzamide] showed an IC50 of 16.4 nM.
`Cc1ccc(-c2ccn[nH]2)cc1NC(=O)c1ccc(Nc2nc(-c3ccccc3)c3ccccc3n2)cc1` [N-[2-methyl-5-(1H-pyrazol-5-yl)phenyl]-4-[(4-phenylquinazolin-2-yl)amino]benzamide] had an IC50 of 6.3 nM.
On to `Cc1ccc(OCCN2CCOCC2)cc1NC(=O)c1ccc(Nc2nc(-c3ccccc3)c3ccccc3n2)cc1` [N-{2-methyl-5-[(2-morpholin-4-ylethyl)oxy]phenyl}-4-[(4-phenylquinazolin-2-yl)amino]benzamide], for which the IC50 was 6.2 nM.
With `CN(C)Cc1cccc(NC(=O)c2ccc(Nc3nc(-c4ccccc4)c4ccccc4n3)cc2)c1` [N-{3-[(dimethylamino)methyl]phenyl}-4-[(4-phenylquinazolin-2-yl)amino]benzamide] the figure was 6.1 nM; with `CCN1CCN(C(=O)c2ccc(C)c(NC(=O)c3ccc(Nc4nc(-c5ccccc5)c5ccccc5n4)cc3)c2)CC1` [N-{5-[(4-ethylpiperazin-1-yl)carbonyl]-2-methylphenyl}-4-[(4-phenylquinazolin-2-yl)amino]benzamide], 23.9 nM.
Take `Cc1ccc(CN(C)C)cc1NC(=O)c1ccc(Nc2nc(-c3cccs3)c3ccccc3n2)cc1` [N-{5-[(dimethylamino)methyl]-2-methylphenyl}-4-{[4-(2-thienyl)quinazolin-2-yl]amino}benzamide]: the 50% inhibitory concentration (IC50) was 21 nM.

As usually defined, the IC50 is the concentration needed to halve the response being measured. High values mean weaker potency in that assay, low ones greater potency in that assay.
